The source of these data is paper PMC10004634 (PLOS ONE, 2023).

Among the targets are KIT(V559D) (Homo sapiens, UniProt P10721, V559D); AAK1 (Homo sapiens, UniProt Q2M2I8); INSR (Homo sapiens, UniProt P06213); CSF1R (Homo sapiens, UniProt P07333).
Holding throughout (test): biochemical
Design in all cases: KINOMEscan scanMAX competition binding, DNA-tagged kinases, qPCR read-out, percent control at 300 nM
For orientation: Quantitative PCR measures a nucleic acid by following its amplification.

A further experiment addresses T1, HIPK4 (Homo sapiens, UniProt Q8NE63).
T1 sequence (Q8NE63 1-616): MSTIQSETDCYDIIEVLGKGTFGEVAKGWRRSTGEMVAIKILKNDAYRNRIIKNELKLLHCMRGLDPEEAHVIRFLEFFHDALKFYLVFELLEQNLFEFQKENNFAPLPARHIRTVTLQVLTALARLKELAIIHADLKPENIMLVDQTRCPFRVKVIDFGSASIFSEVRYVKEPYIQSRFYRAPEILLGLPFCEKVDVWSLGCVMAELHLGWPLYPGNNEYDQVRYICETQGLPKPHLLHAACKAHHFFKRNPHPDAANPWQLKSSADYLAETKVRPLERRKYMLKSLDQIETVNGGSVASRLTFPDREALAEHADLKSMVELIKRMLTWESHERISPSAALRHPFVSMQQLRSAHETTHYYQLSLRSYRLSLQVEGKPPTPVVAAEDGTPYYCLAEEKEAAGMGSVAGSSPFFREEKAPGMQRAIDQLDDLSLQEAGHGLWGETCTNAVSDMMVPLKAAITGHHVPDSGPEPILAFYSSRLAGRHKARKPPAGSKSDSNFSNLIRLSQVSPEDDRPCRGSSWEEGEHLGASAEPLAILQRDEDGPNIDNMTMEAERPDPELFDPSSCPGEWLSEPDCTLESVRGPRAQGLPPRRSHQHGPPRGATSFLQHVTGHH

Another experiment has as its target T2, ITK (Homo sapiens, UniProt Q08881).
T2 sequence (Q08881 1-620): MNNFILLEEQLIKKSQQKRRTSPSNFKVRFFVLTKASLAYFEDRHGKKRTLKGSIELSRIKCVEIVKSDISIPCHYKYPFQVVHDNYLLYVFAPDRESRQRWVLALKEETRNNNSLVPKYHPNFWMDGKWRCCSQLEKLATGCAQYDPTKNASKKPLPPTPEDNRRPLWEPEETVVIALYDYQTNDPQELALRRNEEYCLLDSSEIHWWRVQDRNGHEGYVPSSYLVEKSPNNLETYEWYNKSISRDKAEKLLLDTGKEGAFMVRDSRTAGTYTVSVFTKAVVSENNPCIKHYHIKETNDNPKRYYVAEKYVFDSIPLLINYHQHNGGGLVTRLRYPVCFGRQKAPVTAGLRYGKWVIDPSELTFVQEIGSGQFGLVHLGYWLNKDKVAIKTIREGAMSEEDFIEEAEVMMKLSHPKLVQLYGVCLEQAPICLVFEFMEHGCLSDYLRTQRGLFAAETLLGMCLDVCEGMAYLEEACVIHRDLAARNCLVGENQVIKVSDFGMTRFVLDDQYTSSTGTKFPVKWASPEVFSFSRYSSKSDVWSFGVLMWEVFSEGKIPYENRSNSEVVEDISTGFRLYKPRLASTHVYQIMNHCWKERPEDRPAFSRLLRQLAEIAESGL

The next experiment has as its target T3, TTK (Homo sapiens, UniProt P33981).
T3 sequence (P33981 1-857): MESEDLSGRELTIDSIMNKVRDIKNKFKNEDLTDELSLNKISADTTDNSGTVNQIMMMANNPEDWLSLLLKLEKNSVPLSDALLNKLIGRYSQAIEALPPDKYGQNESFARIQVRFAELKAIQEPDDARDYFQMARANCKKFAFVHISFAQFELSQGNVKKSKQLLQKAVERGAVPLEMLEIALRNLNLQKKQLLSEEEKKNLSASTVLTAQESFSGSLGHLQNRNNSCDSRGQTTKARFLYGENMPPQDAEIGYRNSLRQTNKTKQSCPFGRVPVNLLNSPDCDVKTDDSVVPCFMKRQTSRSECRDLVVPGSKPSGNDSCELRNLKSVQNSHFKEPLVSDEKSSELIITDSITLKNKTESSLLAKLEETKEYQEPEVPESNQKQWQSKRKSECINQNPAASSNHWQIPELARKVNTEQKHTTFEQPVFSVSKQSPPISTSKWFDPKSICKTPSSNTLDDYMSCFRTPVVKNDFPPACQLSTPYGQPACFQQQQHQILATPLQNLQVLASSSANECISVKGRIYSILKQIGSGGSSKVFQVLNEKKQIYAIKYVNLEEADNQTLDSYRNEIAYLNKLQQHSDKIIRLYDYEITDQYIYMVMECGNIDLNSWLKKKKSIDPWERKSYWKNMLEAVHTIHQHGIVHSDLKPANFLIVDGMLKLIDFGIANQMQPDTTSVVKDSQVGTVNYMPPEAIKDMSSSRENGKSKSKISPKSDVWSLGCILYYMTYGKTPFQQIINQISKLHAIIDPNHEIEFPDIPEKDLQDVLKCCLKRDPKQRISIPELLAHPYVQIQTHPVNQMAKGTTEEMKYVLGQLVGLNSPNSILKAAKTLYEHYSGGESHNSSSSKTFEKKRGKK

[1] abbreviates: read-out: Percent control / Acalabrutinib.
[2] abbreviates: read-out: Percent control / Ibrutinib.
[3] abbreviates: read-out: Percent control / Tirabrutinib.
The mark [4] stands for this setting: read-out: Percent control / Zanubrutinib.

Where two headings read alike, the source gives them in different places.

KIT(V559D), sequence (P10721 whole entry V559D): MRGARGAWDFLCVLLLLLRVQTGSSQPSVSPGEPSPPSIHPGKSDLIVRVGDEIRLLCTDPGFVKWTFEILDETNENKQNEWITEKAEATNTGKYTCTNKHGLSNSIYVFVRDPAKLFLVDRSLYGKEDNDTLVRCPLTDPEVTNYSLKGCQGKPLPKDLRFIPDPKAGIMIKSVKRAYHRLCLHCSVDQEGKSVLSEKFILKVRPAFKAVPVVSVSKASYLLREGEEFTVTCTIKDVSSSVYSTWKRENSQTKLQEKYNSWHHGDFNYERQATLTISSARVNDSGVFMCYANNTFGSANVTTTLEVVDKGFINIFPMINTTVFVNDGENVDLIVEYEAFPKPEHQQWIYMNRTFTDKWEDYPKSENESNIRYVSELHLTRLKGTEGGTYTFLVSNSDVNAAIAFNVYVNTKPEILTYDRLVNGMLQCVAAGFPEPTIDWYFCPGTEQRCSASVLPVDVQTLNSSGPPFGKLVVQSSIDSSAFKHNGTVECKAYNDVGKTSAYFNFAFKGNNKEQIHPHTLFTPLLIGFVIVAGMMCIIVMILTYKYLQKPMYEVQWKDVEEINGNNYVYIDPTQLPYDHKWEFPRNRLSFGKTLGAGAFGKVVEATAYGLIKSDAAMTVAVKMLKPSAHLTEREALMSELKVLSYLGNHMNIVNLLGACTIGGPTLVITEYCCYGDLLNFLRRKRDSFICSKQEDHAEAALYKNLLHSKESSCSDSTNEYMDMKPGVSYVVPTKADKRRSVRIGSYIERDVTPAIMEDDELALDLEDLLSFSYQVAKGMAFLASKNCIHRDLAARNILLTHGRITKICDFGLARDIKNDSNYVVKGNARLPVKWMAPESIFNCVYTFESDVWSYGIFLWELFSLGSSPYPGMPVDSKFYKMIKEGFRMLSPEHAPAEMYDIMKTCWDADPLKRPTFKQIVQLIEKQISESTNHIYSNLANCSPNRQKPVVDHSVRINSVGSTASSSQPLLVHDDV
AAK1, sequence (Q2M2I8 whole entry): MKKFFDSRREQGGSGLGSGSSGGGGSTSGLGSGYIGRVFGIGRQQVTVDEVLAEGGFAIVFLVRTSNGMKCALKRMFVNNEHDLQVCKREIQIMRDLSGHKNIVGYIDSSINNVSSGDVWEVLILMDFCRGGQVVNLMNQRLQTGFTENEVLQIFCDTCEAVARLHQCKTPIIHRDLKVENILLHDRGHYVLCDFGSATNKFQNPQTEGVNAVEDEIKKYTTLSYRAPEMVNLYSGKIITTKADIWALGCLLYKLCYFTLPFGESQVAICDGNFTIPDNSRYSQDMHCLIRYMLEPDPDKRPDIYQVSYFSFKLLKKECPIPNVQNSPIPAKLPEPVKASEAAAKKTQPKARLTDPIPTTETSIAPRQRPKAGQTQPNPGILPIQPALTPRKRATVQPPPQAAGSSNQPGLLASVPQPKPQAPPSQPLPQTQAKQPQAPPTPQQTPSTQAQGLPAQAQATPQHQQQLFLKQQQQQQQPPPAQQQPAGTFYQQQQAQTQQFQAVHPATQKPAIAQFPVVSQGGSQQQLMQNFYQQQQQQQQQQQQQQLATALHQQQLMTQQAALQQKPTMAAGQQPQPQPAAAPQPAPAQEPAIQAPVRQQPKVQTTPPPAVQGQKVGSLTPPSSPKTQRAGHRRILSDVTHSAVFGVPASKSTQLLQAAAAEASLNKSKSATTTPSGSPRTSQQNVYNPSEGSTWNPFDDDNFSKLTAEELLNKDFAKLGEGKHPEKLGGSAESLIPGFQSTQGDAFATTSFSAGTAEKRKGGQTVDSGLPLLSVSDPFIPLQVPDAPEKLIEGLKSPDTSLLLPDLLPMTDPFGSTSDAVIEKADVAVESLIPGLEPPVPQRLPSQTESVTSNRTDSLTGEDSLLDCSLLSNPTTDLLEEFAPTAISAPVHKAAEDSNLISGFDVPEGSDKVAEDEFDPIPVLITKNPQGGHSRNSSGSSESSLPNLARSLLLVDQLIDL
INSR, sequence (P06213 whole entry): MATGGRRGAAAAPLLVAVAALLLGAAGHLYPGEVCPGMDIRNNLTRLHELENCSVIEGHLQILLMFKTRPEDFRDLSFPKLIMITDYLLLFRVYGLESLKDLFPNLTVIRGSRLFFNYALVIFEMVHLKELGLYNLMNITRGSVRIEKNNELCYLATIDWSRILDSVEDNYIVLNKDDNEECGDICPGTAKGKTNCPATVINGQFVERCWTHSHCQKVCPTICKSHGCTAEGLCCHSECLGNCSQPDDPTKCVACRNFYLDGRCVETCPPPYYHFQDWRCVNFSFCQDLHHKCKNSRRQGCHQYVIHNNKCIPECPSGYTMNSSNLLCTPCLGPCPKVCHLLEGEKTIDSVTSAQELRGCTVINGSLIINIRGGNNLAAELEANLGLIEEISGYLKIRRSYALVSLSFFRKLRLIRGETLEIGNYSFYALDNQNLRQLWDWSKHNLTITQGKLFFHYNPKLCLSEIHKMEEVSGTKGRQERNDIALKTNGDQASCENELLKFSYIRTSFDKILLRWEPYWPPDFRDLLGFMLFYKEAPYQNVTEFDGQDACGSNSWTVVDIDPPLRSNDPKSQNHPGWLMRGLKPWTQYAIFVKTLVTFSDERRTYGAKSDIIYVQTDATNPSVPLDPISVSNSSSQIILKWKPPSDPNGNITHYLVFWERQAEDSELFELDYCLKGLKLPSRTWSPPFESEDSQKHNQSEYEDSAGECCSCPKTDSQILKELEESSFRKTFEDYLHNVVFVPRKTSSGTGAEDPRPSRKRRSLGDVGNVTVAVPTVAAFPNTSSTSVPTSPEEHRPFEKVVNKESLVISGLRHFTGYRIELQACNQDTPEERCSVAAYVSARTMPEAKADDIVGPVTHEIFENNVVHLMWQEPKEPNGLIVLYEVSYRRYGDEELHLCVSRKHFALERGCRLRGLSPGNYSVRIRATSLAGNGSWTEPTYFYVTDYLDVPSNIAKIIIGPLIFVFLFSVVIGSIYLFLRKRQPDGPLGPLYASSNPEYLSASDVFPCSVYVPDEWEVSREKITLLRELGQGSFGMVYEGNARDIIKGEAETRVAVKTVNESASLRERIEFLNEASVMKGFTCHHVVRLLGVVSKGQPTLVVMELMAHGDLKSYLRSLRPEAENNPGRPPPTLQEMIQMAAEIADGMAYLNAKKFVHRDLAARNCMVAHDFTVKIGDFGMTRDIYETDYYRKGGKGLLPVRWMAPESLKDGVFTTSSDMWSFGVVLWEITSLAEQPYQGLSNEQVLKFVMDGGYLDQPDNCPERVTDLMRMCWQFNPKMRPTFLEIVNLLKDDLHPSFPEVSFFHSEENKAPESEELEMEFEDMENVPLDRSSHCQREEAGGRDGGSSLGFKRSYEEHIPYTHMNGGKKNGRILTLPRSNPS
CSF1R, sequence (P07333 whole entry): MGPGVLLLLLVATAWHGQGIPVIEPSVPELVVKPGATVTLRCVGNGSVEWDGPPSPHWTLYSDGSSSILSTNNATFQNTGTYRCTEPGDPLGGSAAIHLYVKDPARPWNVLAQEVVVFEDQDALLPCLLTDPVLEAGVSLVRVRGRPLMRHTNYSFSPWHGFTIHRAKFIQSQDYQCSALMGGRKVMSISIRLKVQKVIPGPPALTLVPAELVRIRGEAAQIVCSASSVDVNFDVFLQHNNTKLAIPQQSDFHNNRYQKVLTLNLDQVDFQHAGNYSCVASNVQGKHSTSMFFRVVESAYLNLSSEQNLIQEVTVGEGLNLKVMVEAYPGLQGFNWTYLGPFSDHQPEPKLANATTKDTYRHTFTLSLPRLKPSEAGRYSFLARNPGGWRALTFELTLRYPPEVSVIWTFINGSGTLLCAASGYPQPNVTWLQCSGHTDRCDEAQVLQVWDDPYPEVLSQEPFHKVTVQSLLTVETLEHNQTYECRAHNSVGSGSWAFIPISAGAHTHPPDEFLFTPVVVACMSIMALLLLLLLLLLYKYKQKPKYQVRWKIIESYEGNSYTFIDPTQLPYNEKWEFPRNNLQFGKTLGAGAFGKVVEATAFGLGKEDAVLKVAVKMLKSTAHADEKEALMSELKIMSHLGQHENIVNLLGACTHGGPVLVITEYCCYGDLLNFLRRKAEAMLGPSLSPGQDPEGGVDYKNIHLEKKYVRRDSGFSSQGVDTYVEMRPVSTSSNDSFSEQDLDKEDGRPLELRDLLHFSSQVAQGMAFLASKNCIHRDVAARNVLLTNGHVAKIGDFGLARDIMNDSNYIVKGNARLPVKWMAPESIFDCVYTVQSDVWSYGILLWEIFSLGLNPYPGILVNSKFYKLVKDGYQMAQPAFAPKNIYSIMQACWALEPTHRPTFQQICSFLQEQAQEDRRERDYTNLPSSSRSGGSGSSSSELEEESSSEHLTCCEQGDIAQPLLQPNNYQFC

Regarding `CC#CC(=O)N1CCC[C@H]1c1nc(-c2ccc(C(=O)Nc3ccccn3)cc2)c2c(N)nccn12` [Acalabrutinib], the remaining binding at 0.3 µM at HIPK4 (setting [1]) is 85%; on KIT(V559D) (setting [1]) it was 84%; at AAK1 (setting [1]), 94%; at ITK (setting [1]), 97%; on INSR (setting [1]), 93%; on CSF1R (setting [1]), 88%. Moreover, the remaining binding at 0.3 µM at TTK (setting [1]) stood at 64%.

Take `C=CC(=O)N1CCC[C@@H](n2nc(-c3ccc(Oc4ccccc4)cc3)c3c(N)ncnc32)C1` [Ibrutinib]: the remaining binding at 0.3 µM was 98% at HIPK4 (setting [2]); 55% at KIT(V559D) (setting [2]); 27% on ITK (setting [2]); 92% on INSR (setting [2]); 66% at CSF1R (setting [2]); 93% at TTK (setting [2]).

For the compound `CC#CC(=O)N1CC[C@@H](n2c(=O)n(-c3ccc(Oc4ccccc4)cc3)c3c(N)ncnc32)C1` [Tirabrutinib], the figures for the remaining binding at 0.3 µM at AAK1 (setting [3]), at ITK (setting [3]) and on INSR (setting [3]) were 57%, 99% and 72%, respectively.

Consider `C=CC(=O)N1CCC([C@@H]2CCNc3c(C(N)=O)c(-c4ccc(Oc5ccccc5)cc4)nn32)CC1` [Zanubrutinib], for which the remaining binding at 0.3 µM at HIPK4 (setting [4]) worked out at 87%; on KIT(V559D) (setting [4]), 87%; on AAK1 (setting [4]), 96%; at ITK (setting [4]), 97%; at INSR (setting [4]) it was 100%; at CSF1R (setting [4]), 88%. The remaining binding at 0.3 µM on TTK (setting [4]) turned out to be 94%.
